Values of other authors, collected in US6054456A, “Substituted piperazine derivatives” (Merck Sharp & Dohme Ltd., priority 1995, dated 2000).

Experiments:
[1] = tested on: human 5-HT1Dα and 5-HT1Dβ receptor subtypes; conditions: cf. WO-A-91/171174, Table 1
[2] = humans, therapeutic doses

## CNS(=O)(=O)Cc1ccc2[nH]cc(CCN(C)C)c2c1 [sumatriptan]
[1]
  discrimination between the human 5-HT1Dα and 5-HT1Dβ receptor subtypes: barely discriminates between the human 5-HT1Dα and 5-HT1Dβ receptor subtypes
[2]
  adverse events: certain adverse cardiovascular events
